Converted amounts (≈) assume the structure as drawn.

The nature of series [1]: Canine half-life assay (IV pharmacokinetics). Particulars: dog, plasma; male beagle dogs, IV 1 mg/kg; unit not given in table (text gives hrs). The series is classed as in vivo. How it is done:
Functional canine half-life of test compounds was determined by methods […] to one of ordinary skill in the art. For example, pharmacokinetic parameters were determined in male beagle dogs (weight of 12.4, 13.2 and 8.9 kg). The intravenous (“IV”) solution dose studies were conducted in a crossover design (n=3). Animals with vascular access ports, chronically implanted in the femoral vein, were used for administration of the dose. The animals had free access to water and were conscious and unrestrained throughout the study. In the IV study, drug was infused at a dose of 1 mg/kg (1 mL/kg) in 50% PEG-400, 10% ethanol and 40% water over 10 minutes. Serial blood samples were collected from the jugular vein at 0.167, 0.25, 0.5, 0.75, 1, 2, 4, 6, 8, 24, 48 and 72 hours post-dose. Plasma was prepared immediately, and the samples were frozen on dry ice and stored at −20° C. until analysis. All samples were analyzed for the concentration of the parent drug by LC-MS/MS analysis.
The pharmacokinetic parameters were calculated by Non-Compartmental Analysis using the […]™ software program (version 4.2, InnaPhase Co., Philadelphia, Pa.). The AUCO-Tlast and AUCtot values were calculated using the trapezoidal summations. The elimination half-life (T1/2) was calculated from the terminal, linear portion of the plasma concentration-time data curve. The total clearance (CLplasma), mean residence time (MRT), and the steady state volume of distribution (Vss) were also calculated after intravenous administration. The total blood clearance (CLblood) was calculated by using the total plasma clearance and the blood to plasma concentration ratio. All results are expressed as mean±SD, unless specified otherwise.

A short description of series [2]: Thermodynamic equilibrium aqueous solubility assay. The series is classed as physicochemical. The note with it: thermodynamic from solid, room temperature, default 50 mM pH 6.5 potassium phosphate buffer. How it is done:
• Assay Name: Thermodynamic Equilibrium Aqueous Solubility Assay • Description: The purpose of this assay is to provide a medium throughput estimation of the thermodynamic equilibrium aqueous solubility of compounds at room temperature. Solvent system default is 50 mM pH 6.5 potassium phosphate buffer. Detailed Protocol:
Standards Preparation—The calibration standard is prepared by accurately weighing 0.5-0.7 mg of sample in 5 ml of methanol. […] A serial dilution is performed on the standard solution.
The final saturated solution is prepared by adding 1.0 ml of the appropriate aqueous solvent to the remaining portion of material (1 dram submission vial). The solution is sonicated and vortexed for ˜30 seconds. The sample solution is placed on an orbiter that continually agitates the sample solutions for 15-24 hours at room temperature. The final saturated solution is then transferred to a 1.5 ml eppendorf tube and centrifuged for ˜2 min. at 10000 rpms. The supernatant from the saturated solution is transferred to a glass HPLC-suitable vial without filtering since the […] is insufficient to saturate the syringe filter. This sample preparation procedure nullifies the effects of non-specific binding to the filtering apparatus.
The standards and sample are analyzed by HPLC using either UV/Vis diode array or variable wavelength detection. Typical quantitation wavelengths are 210 or 254 nm; detection wavelength can be individually customized to optimize sensitivity. In addition to UV detection, mass spectrometry detection is recommended if available in order to confirm the identity of the HPLC-UV peak of interest.
Dilutions of aqueous test solutions are performed if HPLC-UV peak is beyond the linear portion of the standard calibration curve. Typical dilutions include 100 ul/900 ul (×10) or 500 ul/500 ul (2 ×), as required.

Another series addresses T1, recombinant human CB-1 (Homo sapiens, UniProt P21554).
T1 construct: expressed in transfected cells; host or cells: CHO cells (CHO-CB-1), membrane preparation
In words: Cannabinoid receptor binding assay (radioligand 3H-CP-55,940, CHO-CB-1 membranes). The note with it: membranes of CHO cells over-expressing recombinant human CB-1, 2 nM 3H-CP-55,940, read-out: CB1 Ki. How it is done: Radioligand binding studies were conducted in membranes prepared from Chinese Hamster Ovary (CHO) cells that over-express recombinant human CB-1 (CHO-CB-1 cells). Total assay volume for the binding studies was 100 μl. 5 μg of membranes were brought up to a final volume of 95 μl with Binding Buffer (25 mM HEPES, 150 mM NaCl, 2.5 mM CaCl2, 1 mM MgCl2, 0.25% BSA). The diluted membranes were preincubated with a compound or DMSO vehicle. The binding reaction was initiated by the addition of 2 nM final ^3H-CP-55,940 (120 Ci/mmol) and proceeded for 2.5 hours at room temperature. The binding reaction was terminated by transferring the reaction to GF/B 96 well plates (presoaked with 0.3% polyethylenimine) using a Packard Cell Harvester. The filter was washed with 0.25 ×PBS, 30 μl MicroScint was added per well, and the bound radiolabel was quantitated by scintillation counting on a Packard TopCount Scintillation Counter. The CB-2 radioligand binding assay was conducted identically except that the membranes from CHO-CB-2 cells were used.

The conditions of series [3]: 16 week trial period, Phase IIb; cited from earlier work.

T1 sequence (P21554 whole entry): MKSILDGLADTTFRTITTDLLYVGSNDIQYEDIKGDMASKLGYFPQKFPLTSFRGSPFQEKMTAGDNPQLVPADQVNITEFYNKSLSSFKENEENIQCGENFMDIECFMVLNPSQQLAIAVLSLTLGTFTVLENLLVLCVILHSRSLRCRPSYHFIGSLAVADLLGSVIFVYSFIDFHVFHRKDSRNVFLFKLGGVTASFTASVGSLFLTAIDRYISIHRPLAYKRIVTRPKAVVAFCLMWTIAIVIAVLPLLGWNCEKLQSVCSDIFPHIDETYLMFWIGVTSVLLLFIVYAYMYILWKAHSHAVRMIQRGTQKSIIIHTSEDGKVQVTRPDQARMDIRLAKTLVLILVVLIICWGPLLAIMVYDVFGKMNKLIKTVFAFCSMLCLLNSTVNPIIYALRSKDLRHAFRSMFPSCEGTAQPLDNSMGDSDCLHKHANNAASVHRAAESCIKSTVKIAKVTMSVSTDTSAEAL

What is called half-life is the time in which the quantity being followed falls by half. The low end stands for fast loss, the high end for slow loss. As a reminder, the solubility is the dissolved amount per volume that the medium holds. The low end stands for little dissolved substance, the high end for much dissolved substance. Broadly, the Ki is a measure of affinity in units of concentration, obtained from inhibition or displacement. In series [1], `COCc1nnc2c(-c3ccc(Cl)cc3)c(-c3ccc(C#N)cc3)c(=O)n(Cc3ccc(C(F)(F)F)nc3C)n12` [Example 2, 4-(8-(4-chlorophenyl)-3-(methoxymethyl)-5-((2-methyl-6-(trifluoromethyl)pyridin-3-yl)methyl)-6-oxo-5,6-dihydro-[1,2,4]triazolo[4,3-b]pyridazin-7-yl)benzonitrile] showed a half-life of 23 h. In series [2], this compound had a solubility of 6 µg/mL (≈ 10.6 µM). Also, the Ki on recombinant human CB-1 amounted to 5 nM.

For the compound `Cc1nc(C(F)(F)F)ccc1Cn1c(=O)c(-c2ccc(C#N)cc2)c(-c2ccc(Cl)cc2)c2nnc(CO)n21` [Example 3, 4-(8-(4-chlorophenyl)-3-(hydroxymethyl)-5-((2-methyl-6-(trifluoromethyl)pyridin-3-yl)methyl)-6-oxo-5,6-dihydro-[1,2,4]triazolo[4,3-b]pyridazin-7-yl)benzonitrile], the half-life in series [1] is 20 h. Besides, the solubility in series [2] was found to be 15 µg/mL (≈ 27.2 µM). Also, the Ki on recombinant human CB-1 came out at 3 nM.

In turn, `Cc1nc(C(F)(F)F)ccc1Cn1c(=O)c(-c2ccc(C#N)cc2)c(-c2ccc(Cl)cc2)c2nnc([C@@H](C)O)n21` [Example 4, (R)-4-(8-(4-chlorophenyl)-3-(1-hydroxyethyl)-5-((2-methyl-6-(trifluoromethyl)pyridin-3-yl)methyl)-6-oxo-5,6-dihydro-[1,2,4]triazolo[4,3-b]pyridazin-7-yl)benzonitrile] came in with a solubility in series [2] of 10 µg/mL (≈ 17.7 µM). Besides, the Ki on recombinant human CB-1 was 15 nM.

`Cc1nc(C(F)(F)F)ccc1Cn1c(=O)c(-c2ccc(C#N)cc2)c(-c2ccc(Cl)cc2)c2nnc([C@H](C)O)n21` [Example 5, (S)-4-(8-(4-chlorophenyl)-3-(1-hydroxyethyl)-5-((2-methyl-6-(trifluoromethyl)pyridin-3-yl)methyl)-6-oxo-5,6-dihydro-[1,2,4]triazolo[4,3-b]pyridazin-7-yl)benzonitrile]: the Ki at recombinant human CB-1 is 10 nM.

In the case of `Cc1nc(C(F)(F)F)ccc1Cn1c(=O)c(-c2ccc(C#N)cc2)c(-c2ccc(Cl)cc2)c2nnc(CN(C)C)n21` [Example 10, 4-(8-(4-chlorophenyl)-3-((dimethylamino)methyl)-5-((2-methyl-6-(trifluoromethyl)pyridin-3-yl)methyl)-6-oxo-5,6-dihydro-[1,2,4]triazolo[4,3-b]pyridazin-7-yl)benzonitrile], in series [2], the solubility is 2 µg/mL (≈ 3.46 µM). For the same compound, at recombinant human CB-1, the Ki was found to be 13 nM.

On to `Cc1nc(C(F)(F)F)ccc1Cn1c(=O)c(-c2ccc(C#N)cc2)c(-c2ccc(Cl)cc2)c2nnc(CN)n21` [Example 11, 4-(3-(aminomethyl)-8-(4-chlorophenyl)-5-((2-methyl-6-(trifluoromethyl)pyridin-3-yl)methyl)-6-oxo-5,6-dihydro-[1,2,4]triazolo[4,3-b]pyridazin-7-yl)benzonitrile], for which, at recombinant human CB-1, the Ki worked out at 11 nM.

Take `Cc1nc(C(F)(F)F)ccc1Cn1c(=O)c(-c2ccccc2)c(-c2ccc(Cl)cc2)c2nnc(CN)n21` [Example 12]: in series [2], the solubility came out at 101 µg/mL (≈ 192 µM). On recombinant human CB-1, the Ki was 8 nM.

For the compound `Cc1ccc(-c2c(-c3ccc(Cl)cc3)c3nnc(CN)n3n(Cc3ccc(C(F)(F)F)nc3C)c2=O)cc1` [Example 13], the solubility in series [2] came to 20 µg/mL (≈ 37.1 µM). Also, the Ki at recombinant human CB-1 came out at 3 nM.

`CNCc1nnc2c(-c3ccc(Cl)cc3)c(-c3ccccc3)c(=O)n(Cc3ccc(C(F)(F)F)nc3C)n12` [Example 14] showed a solubility in series [2] of 25 µg/mL (≈ 46.4 µM). Also, the Ki on recombinant human CB-1 is 10 nM.

In the case of `Cc1nc(C(F)(F)F)ccc1Cn1c(=O)c(-c2ccc(Cl)cc2)c(-c2ccc(Cl)cc2)c2nnc(CN)n21` [Example 15], the solubility in series [2] amounted to 16 µg/mL (≈ 28.6 µM). Further, the Ki at recombinant human CB-1 amounted to 12 nM.

`Cc1ccc(-c2c(-c3ccc(Cl)cc3)c3nnc([C@H](C)N)n3n(Cc3ccc(C(F)(F)F)nc3C)c2=O)cc1` [Example 16]: the solubility in series [2] came to 38 µg/mL (≈ 68.7 µM). Besides, the Ki at recombinant human CB-1 is 6 nM.

On to `Cc1ccc(-c2c(-c3ccc(Cl)cc3)c(=O)n(Cc3ccc(C(F)(F)F)nc3C)n3c(CN)nnc23)cc1` [Example 17], for which the solubility in series [2] worked out at 31 µg/mL (≈ 57.5 µM). At recombinant human CB-1, the Ki was 20 nM.

With `Cc1ccc(-c2c(-c3ccc(Cl)cc3)c(=O)n(Cc3ccc(C(F)(F)F)nc3C)n3c([C@H](C)O)nnc23)cc1` [Example 18, (S)-7-(4-chlorophenyl)-3-(1-hydroxyethyl)-5-((2-methyl-6-(trifluoromethyl)pyridin-3-yl)methyl)-8-p-tolyl-[1,2,4]triazolo[4,3-b]pyridazin-6(5H)-one], the solubility in series [2] stood at 7 µg/mL (≈ 12.6 µM). For the same compound, the Ki on recombinant human CB-1 was 14 nM.

As to `Cc1ccc(-c2c(-c3ccc(Cl)cc3)c3nnc([C@H](C)O)n3n(Cc3ccc(C(F)(F)F)nc3C)c2=O)cc1` [Example 19, (S)-8-(4-chlorophenyl)-3-(1-hydroxyethyl)-5-((2-methyl-6-(trifluoromethyl)pyridin-3-yl)methyl)-7-p-tolyl-[1,2,4]triazolo[4,3-b]pyridazin-6(5H)-one], the solubility in series [2] came to 7 µg/mL (≈ 12.6 µM). In addition, the Ki on recombinant human CB-1 was found to be 5 nM.

Regarding `Cc1nc(C(F)(F)F)ccc1Cn1c(=O)c(-c2ccccc2)c(-c2ccc(Cl)cc2)c2nnc([C@H](C)O)n21` [Example 20, (S)-8-(4-chlorophenyl)-3-(1-hydroxyethyl)-5-((2-methyl-6-(trifluoromethyl)pyridin-3-yl)methyl)-7-phenyl-[1,2,4]triazolo[4,3-b]pyridazin-6(5H)-one], the solubility in series [2] was found to be 22 µg/mL (≈ 40.7 µM). In addition, the Ki on recombinant human CB-1 is 6 nM.

In turn, `Cc1nc(C(F)(F)F)ccc1Cn1c(=O)c(-c2ccccc2)c(-c2ccc(Cl)cc2)c2nnc([C@@H](C)O)n21` [Example 21, (R)-8-(4-chlorophenyl)-3-(1-hydroxyethyl)-5-((2-methyl-6-(trifluoromethyl)pyridin-3-yl)methyl)-7-phenyl-[1,2,4]triazolo[4,3-b]pyridazin-6(5H)-one] came in with a solubility in series [2] of 31 µg/mL (≈ 57.4 µM). The Ki on recombinant human CB-1 came out at 27 nM.

Compound `COCc1nnc2c(-c3ccc(Cl)cc3)c(-c3ccccc3)c(=O)n(Cc3ccc(C(F)(F)F)nc3C)n12` [Example 22, 8-(4-chlorophenyl)-3-(methoxymethyl)-5-((2-methyl-6-(trifluoromethyl)pyridin-3-yl)methyl)-7-phenyl-[1,2,4]triazolo[4,3-b]pyridazin-6(5H)-one] had a half-life in series [1] of 39 h. The compound further came in with a solubility in series [2] of 4 µg/mL (≈ 7.41 µM). Further, on recombinant human CB-1, the Ki amounted to 3 nM.

Consider `Cc1c(C(=O)NN2CCCCC2)nn(-c2ccc(Cl)cc2Cl)c1-c1ccc(Cl)cc1` [SR-141716], for which the “body weight in human subjects” value in series [3] was “dose-dependently reduced body weight”.

These data come from patent US8030306B2, “Azabicyclic heterocycles as cannabinoid receptor modulators” (Bristol-Myers Squibb Company, priority 2006, dated 2011).
